Assay results from patent publication US8362000B2, “Azetidinyl diamides as monoacylglycerol lipase inhibitors” (Janssen Pharmaceutica NV, priority 2009, dated 2013).

The compounds below were run against T1, mutant MGL (Homo sapiens, UniProt Q99685, L169S/L176S) (assay: MGL ThermoFluor assay - mutant). Settings: ThermoFluor concentration-response, read-out: MGL mutant ThermoFluor Kd.
T1 sequence (Q99685 1-303 L169S/L176S): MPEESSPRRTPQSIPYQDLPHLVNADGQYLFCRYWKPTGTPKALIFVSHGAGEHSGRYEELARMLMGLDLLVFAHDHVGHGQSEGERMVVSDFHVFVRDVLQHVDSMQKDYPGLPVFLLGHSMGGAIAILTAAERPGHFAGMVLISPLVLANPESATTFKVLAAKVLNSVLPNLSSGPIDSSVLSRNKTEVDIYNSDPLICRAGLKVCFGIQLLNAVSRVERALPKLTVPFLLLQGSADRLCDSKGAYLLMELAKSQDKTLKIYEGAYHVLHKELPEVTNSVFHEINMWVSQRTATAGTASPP
Type: binding
For `O=C(c1ccccc1)N1CCN(C2CN(C(=O)c3ccc(SCc4ccc(Cl)c(Cl)c4)cc3)C2)CC1` [Cpd 417], the Kd was 66.7 nM.
Work on `O=C(c1ccccc1)N1CCN(C2CN(C(=O)c3ccc(C4CCCCC4)cc3)C2)CC1` [Cpd 1, 1-{1-[(4-Cyclohexylphenyl)carbonyl]azetidin-3-yl}-4-(phenylcarbonyl)-piperazine] yielded a Kd of 5.9 nM.
For `O=C(c1ccc2c(c1)C(Cc1ccccc1)(Cc1ccccc1)C(=O)N2Cc1ccccc1)N1CC(N2CCN(C(=O)c3nccs3)CC2)C1` [Cpd 1431], the Kd was 35 nM.
For `O=C(c1ccccc1)N1CCN(C2CN(C(=O)c3cnn(-c4ccccc4)c3C(F)(F)F)C2)CC1` [Cpd 626, 1-(Phenylcarbonyl)-4-(1-{[1-phenyl-5-(trifluoromethyl)-1H-pyrazol-4-yl]carbonyl}azetidin-3-yl)piperazine], the Kd was 5020 nM.
In the case of `O=C(c1ccccc1)N1CCN(C2CN(C(=O)c3ccc(CNc4c(F)cccc4F)cc3)C2)CC1` [Cpd 556], the Kd is reported as 97 nM.
`O=C(c1ccccc1)N1CCN(C2CN(C(=O)c3ccc(Oc4ccc(Cl)cc4)cc3)C2)CC1` [Cpd 425] gave a Kd of 200 nM.
`O=C(c1ccccc1)N1CCN(C2CN(C(=O)c3ccc(CNc4ccccc4F)cc3)C2)CC1` [Cpd 553] was tested, and the Kd was 372 nM.
Work on `O=C(c1cscn1)N1CCN(C2CN(C(=O)C3CCC(c4ccc(Cl)cc4)CC3)C2)CC1` (stereo not shown) [Cpd 643] yielded a Kd of 1000 nM.
In the case of `O=C(c1ccc(-c2ccccc2)cc1)N1CCN(C2CN(C(=O)c3nccs3)C2)C(c2ccccc2)C1` (stereo not shown) [Cpd 1401, 4-(Biphenyl-4-ylcarbonyl)-2-phenyl-1-[1-(1,3-thiazol-2-ylcarbonyl)azetidin-3-yl]piperazine], the Kd is reported as 1250 nM.
Compound `O=C(c1ccccc1)N1CCN(C2CN(C(=O)c3ccc(Oc4ccccn4)cc3)C2)CC1` [Cpd 1484] has a Kd of 20000 nM.
`O=C(c1cc(F)cc(Br)c1)N1CC(N2CCN(C(=O)c3cscn3)CC2)C1` [Cpd 926] showed a Kd of 9440 nM.
For `O=C(c1ccccc1)N1CCN(C2CN(C(=O)c3ccc(F)cc3)C2)CC1` [Cpd 49, 1-{1-[(4-Fluorophenyl)carbonyl]azetidin-3-yl}-4-(phenylcarbonyl)piperazine], the Kd was 6670 nM.
For `O=C(c1ccccc1)N1CCN(C2CN(C(=O)c3ccc(NCc4ccc(F)c(C(F)(F)F)c4)cc3)C2)CC1` [Cpd 494, N-[4-Fluoro-3-(trifluoromethyl)benzyl]-4-({3-[4-(phenylcarbonyl)piperazin-1-yl]azetidin-1-yl}carbonyl)aniline], the Kd was 100 nM.
With `O=C(c1ccccc1)N1CCN(C2CN(C(=O)c3ccccc3C3CCNC3)C2)CC1` (stereo not shown) [Cpd 456, 1-(Phenylcarbonyl)-4-{1-[(2-pyrrolidin-3-ylphenyl)carbonyl]azetidin-3-yl}piperazine] the Kd was > 76700 nM.
Work on `Cc1nc(-c2ccc(F)cc2)sc1C(=O)N1CC(N2CCN(C(=O)c3ccccc3)CC2)C1` [Cpd 621, 1-(1-{[2-(4-Fluorophenyl)-4-methyl-1,3-thiazol-5-yl]carbonyl}azetidin-3-yl)-4-(phenylcarbonyl)piperazine] yielded a Kd of 263 nM.
With `O=C(c1ccccc1)N1CCN(C2CN(C(=O)c3cnc(NCc4ccccc4)s3)C2)CC1` [Cpd 50, N-Benzyl-5-({3-[4-(phenylcarbonyl)piperazin-1-yl]azetidin-1-yl}carbonyl)-1,3-thiazol-2-amine] the Kd was 10000 nM.
In the case of `CCCn1ccc2cc(C(=O)N3CC(N4CCN(C(=O)c5ccccc5)CC4)C3)ccc21` [Cpd 42, 5-({3-[4-(Phenylcarbonyl)piperazin-1-yl]azetidin-1-yl}carbonyl)-1-propyl-1H-indole], the Kd is reported as 83.3 nM.
Work on `O=C(c1ccccc1)N1CCN(C2CN(C(=O)c3ccc(-c4cc(Cl)cc(Cl)c4)cc3)C2)CC1` [Cpd 79, 1-{1-[(3′,5′-Dichlorobiphenyl-4-yl)carbonyl]azetidin-3-yl}-4-(phenylcarbonyl)piperazine] yielded a Kd of 26.6 nM.
With `Cn1cccc1C(=O)N1CCN(C2CN(C(=O)c3ccc(-c4ccccc4)cc3)C2)CC1` [Cpd 11, 1-[1-(Biphenyl-4-ylcarbonyl)azetidin-3-yl]-4-[(1-methyl-1H-pyrrol-2-yl)carbonyl]piperazine] the Kd was 454 nM.
Work on `O=C(c1ccccc1)N1CCN(C2CN(C(=O)c3ccc(-n4cnc5ccccc54)cc3)C2)CC1` [Cpd 48, 1-[4-({3-[4-(Phenylcarbonyl)piperazin-1-yl]azetidin-1-yl}carbonyl)phenyl]-1H-benzimidazole] yielded a Kd of 1000 nM.
With `O=C(c1ccc(Cc2ccccc2)cc1)N1CC(N2CCN(C(=O)c3nccs3)C(c3ccccc3)C2)C1` (stereo not shown) [Cpd 1464, 4-{1-[(4-Benzylphenyl)carbonyl]azetidin-3-yl}-2-phenyl-1-(1,3-thiazol-2-ylcarbonyl)piperazine] the Kd was > 31200 nM.
Work on `O=C(c1cc(Br)cc(C(F)(F)F)c1)N1CC(N2CCN(C(=O)c3nccs3)CC2)C1` [Cpd 910] yielded a Kd of 1330 nM.
With `O=C(c1ccc(CSc2cccc(Cl)c2)cc1)N1CC(N2CCN(C(=O)c3nccs3)CC2)C1` [Cpd 454] the Kd was 14.7 nM.
For `O=C(/C=C/c1ccccc1Cl)N1CC(N2CCN(C(=O)c3ccccc3)CC2)C1` [Cpd 103, 1-{1-[(2E)-3-(2-Chlorophenyl)prop-2-enoyl]azetidin-3-yl}-4-(phenylcarbonyl)piperazine], the Kd was 6250 nM.
In the case of `Cn1ccnc1C(=O)N1CCN(C2CN(C(=O)c3ccc(C4CCCCC4)cc3)C2)CC1` [Cpd 3, 1-{1-[(4-Cyclohexylphenyl)carbonyl]azetidin-3-yl}-4-[(1-methyl-1H-imidazol-2-yl)carbonyl]piperazine], the Kd is reported as 2500 nM.
In the case of `O=C(c1ccccc1)N1CCN(C2CN(C(=O)c3ccc(-c4ccccc4Cl)cc3)C2)CC1` [Cpd 36, 1-{1-[(2′-Chlorobiphenyl-4-yl)carbonyl]azetidin-3-yl}-4-(phenylcarbonyl)piperazine], the Kd is reported as 37 nM.
`O=C(c1ccccc1)N1CCN(C2CN(C(=O)c3ccc(NCc4ccccc4Cl)cc3)C2)CC1` [Cpd 492, N-(2-Chlorobenzyl)-4-({3-[4-(phenylcarbonyl)piperazin-1-yl]azetidin-1-yl}carbonyl)aniline] gave a Kd of 167 nM.
`Cc1ccc(C(=O)N2CCN(C3CN(C(=O)c4ccc(-c5ccccc5)cc4)C3)CC2)s1` [Cpd 14, 1-[1-(Biphenyl-4-ylcarbonyl)azetidin-3-yl]-4-[(5-methylthiophen-2-yl)carbonyl]piperazine] was tested, and the Kd was 250 nM.
Compound `O=C(c1ccccc1)N1CCN(C2CN(C(=O)c3ccc(-c4ccccc4)c(F)c3)C2)CC1` [Cpd 81, 1-{1-[(2-Fluorobiphenyl-4-yl)carbonyl]azetidin-3-yl}-4-(phenylcarbonyl)piperazine] has a Kd of 66.7 nM.
`O=C(c1ccc(-c2ccccc2)cc1)N1CC(N2CCN(C(=O)c3ccccc3)C(CO)C2)C1` (stereo not shown) [Cpd 460, {4-[1-(Biphenyl-4-ylcarbonyl)azetidin-3-yl]-1-(phenylcarbonyl)piperazin-2-yl}methanol] showed a Kd of 9100 nM.
`O=C(c1ccccc1)N1CCN(C2CN(C(=O)c3cncc(-c4ccccc4)c3)C2)CC1` [Cpd 80, 1-(Phenylcarbonyl)-4-{1-[(5-phenylpyridin-3-yl)carbonyl]azetidin-3-yl}piperazine] was tested, and the Kd was 49500 nM.
In the case of `O=C(c1nccs1)N1CCN(C2CN(C(=O)c3cc(Br)ccc3F)C2)CC1` [Cpd 915], the Kd is reported as 5000 nM.
For `O=C(c1ccc2[nH]ccc2c1)N1CC(N2CCN(C(=O)c3nccs3)CC2)C1` [Cpd 911, 5-({3-[4-(1,3-Thiazol-2-ylcarbonyl)piperazin-1-yl]azetidin-1-yl}carbonyl)-1H-indole], the Kd was 333 nM.

Same assay, conditions: ThermoFluor thermal stability binding assay, read-out: MGL mutant ThermoFluor Kd
With `O=C(c1ccc(-c2ccccc2)cc1)N1CC(N2CCN(C(=O)C3CCCC3)CC2)C1` [Cpd 1398] the Kd was 182 nM.
Work on `O=C(c1ccccc1)N1CCN(C2CN(C(=O)c3ccc(OCc4ccncc4)c(Cl)c3)C2)CC1` [Cpd 408] yielded a Kd of 1940 nM.
Work on `O=C(c1ccc2c(c1)CCCN2c1ncccn1)N1CC(N2CCN(C(=O)c3nccs3)CC2)C1` [Cpd 375, 1-Pyrimidin-2-yl-6-({3-[4-(1,3-thiazol-2-ylcarbonyl)piperazin-1-yl]azetidin-1-yl}carbonyl)-1,2,3,4-tetrahydroquinoline] yielded a Kd of 229 nM.
`O=C(c1ccccc1)N1CCN(C2CN(C(=O)c3ccc(OCc4ccc(S(=O)(=O)N5CCOCC5)cc4)cc3)C2)CC1` [Cpd 394] gave a Kd of 846 nM.
Compound `O=C(c1ccccc1)N1CCN(C2CN(C(=O)c3ccc4nc(-c5cccc(C(F)(F)F)c5)oc4c3)C2)CC1` [Cpd 131, 6-({3-[4-(Phenylcarbonyl)piperazin-1-yl]azetidin-1-yl}carbonyl)-2-[3-(trifluoromethyl)phenyl]-1,3-benzoxazole] has a Kd of 94.1 nM.
Compound `O=C(c1ccccc1)N1CCN(C2CN(C(=O)c3ccc4c(ccn4S(=O)(=O)c4ccccc4)c3)C2)CC1` [Cpd 130] has a Kd of 250 nM.
`O=C(c1cscn1)N1CCN(C2CN(C(=O)c3cnn(-c4ccccc4)c3C(F)(F)F)C2)CC1` [Cpd 1477] was tested, and the Kd was > 31200 nM.
In the case of `O=C(c1ccc2c(c1)CCCN2c1ccc(C(F)(F)F)cc1)N1CC(N2CCN(C(=O)c3nccs3)CC2)C1` [Cpd 373, 6-({3-[4-(1,3-Thiazol-2-ylcarbonyl)piperazin-1-yl]azetidin-1-yl}carbonyl)-1-[4-(trifluoromethyl)phenyl]-1,2,3,4-tetrahydroquinoline], the Kd is reported as 5.5 nM.
For `O=C(c1ccccc1)N1CCN(C2CN(C(=O)c3ccc(-c4cccc(C(F)(F)F)c4)cc3F)C2)CC1` [Cpd 246, 1-(1-{[3-Fluoro-3′-(trifluoromethyl)biphenyl-4-yl]carbonyl}azetidin-3-yl)-4-(phenylcarbonyl)piperazine], the Kd was 16.7 nM.
`O=C(/C=C/c1ccccc1Br)N1CC(N2CCN(C(=O)c3nccs3)CC2)C1` [Cpd 296, 1-{1-[(2E)-3-(2-Bromophenyl)prop-2-enoyl]azetidin-3-yl}-4-(1,3-thiazol-2-ylcarbonyl)piperazine] gave a Kd of 476 nM.
Work on `O=C(c1ccccc1)N1CCN(C2CN(C(=O)c3ccc4oc(-c5ccccc5)nc4c3)C2)CC1` [Cpd 132] yielded a Kd of 250 nM.
In the case of `O=C(c1ccccc1)N1CCN(C2CN(C(=O)c3ccc(OCc4ccc(Cl)c(Cl)c4)c(Cl)c3)C2)CC1` [Cpd 399], the Kd is reported as 40.8 nM.
In the case of `Cc1oc(-c2ccccc2)cc1C(=O)N1CC(N2CCN(C(=O)c3cscn3)CC2)C1` [Cpd 1396], the Kd is reported as 317 nM.
